Assay results reported in patent publication US20090192327A1, “METHODS AND COMPOSITIONS FOR INHIBITING BIOFILMS” (Sequoia Sciences, Inc., priority 2004, published 2009).
Entries after “also recorded” stand apart in the source; their conditions may differ.

Experiments:
E. coli JM109 = experiment: Biofilm inhibition assay in 96 well plates (adapted from Pratt and Kolter); assay type: cell-based, Escherichia coli; conditions: 10 μg/ml, LB with or without 0.2% glucose, 37° C. for two days without shaking
Procedure: Such compounds were evaluated using an assay adapted from a protocol reported in Pratt and Kolter, 1998, Molecular Microbiology, 30: 285-293; and Li et al., 2001, J. Bacteriol., 183: 897-908. […] Negative controls included only ethanol (the solvent for each test compound). To quantify the biofilm mass, the suspension culture was removed, the biofilm was washed three times with water, and then stained with 0.1% crystal violet for 20 minutes. Next, the plates were washed three times with water and analyzed by spectrophotometry at 540 nm to quantify the biofilm mass (by comparing the biofilm mass in the wells containing a test compound to that of the control wells).

Escherichia coli = experiment: Minimum inhibitory concentration (NCCLS broth microdilution); assay type: cell-based; conditions: LB media with 0.2% glucose, 35° C. for 20-24 hours
Procedure: (§1) The minimum inhibitory concentrations (MICs) for several of the specific biofilm inhibitors described herein were determined against several targets, including P. aeruginosa, E. coli, and Staphylococcus aureus. The MICs of the biofilm inhibitors were measured using the reference broth microdilution method recommended by the National Committee for Clinical Laboratory Standards (NCCLS).
(§2) […]. The negative control, generally, included the solvent in which the test compounds were dissolved. In this example, the wells correlating to the negative controls included ethanol (without any biofilm inhibitors).
(§3) In this example, 150 μl of sterile media was added to each well (LB media with 0.2% glucose), along with appropriate volumes of concentrated solutions of the inhibitors to be tested, followed by 50 μl of bacterial inoculum. Thus, each well contained a final volume of approximately 200 μl (not including the volume of the concentrated inhibitor). […]. The plate was subsequently rinsed, stained, and analyzed in accordance with the procedures described in Example 1.
(§4) Tables 7, 8, and 9 summarize the data observed and, specifically, the MICs calculated for the several compounds referenced therein against P. aeruginosa, E. coli, and S. aureus, respectively. The minimum inhibitory concentrations were calculated as the lowest inhibitor concentration at which biofilm inhibition was observed.

Staphylococcus aureus = experiment: as above; assay type: cell-based; conditions: LB media with 0.2% glucose; 35° C. for 20-24 hours
Procedure: as §1, §2, §3, §4

Pseudomonas aeruginosa [1] = experiment: Microtiter plate biofilm inhibition assay (crystal violet); assay type: cell-based; conditions: 10 μg/ml, LB media with 0.2% glucose, 24 hours at room temperature, average of three wells
Procedure: A microtiter plate assay was used to quantitatively measure the effect each tested compound had on the ability of bacteria to form a biofilm. In this example, a concentrated solution of each compound tested was loaded separately into three separate wells of a polystyrene microtiter plate. In addition, each assay included triplicate wells correlating to negative and positive controls. For the positive controls, biofilm inhibitors of known activity were used, whereas no inhibitors were added to wells correlating to negative controls. […] Thus, each well contained a final volume of approximately 200 μl (not including the volume of the concentrated inhibitor). […] The microtiter plates were then placed on a shaker for 24 hours at room temperature. After the 24 hour incubation period, the microtiter plate was removed from the shaker, rinsed, and stained. During the rinsing step, the test compound, media, and bacterial inoculum solution was drained from the plate, approximately 300 μl of 0.1M phosphate buffered saline (PBS) was added to each well, which was subsequently drained from the plate. The rinsing step removed any suspended cells from the assay. 0.1% crystal violet stain was added to each well for approximately 20 minutes. Next, the crystal violet solution was drained from the microtiter plate. The plate was rinsed with PBS as described above four (4) times to remove any excess stain from the plate. Following the PBS rinsing steps, the plate was eluted with 250 μl/well of ethanol, which improved the detection of the stain. The plate was immediately analyzed spectrophotometrically at 540 nm using a microtiter plate reader. The inhibitory effect each compound had on the bacteria's ability to form a biofilm on the surface of each well was determined as follows: The absorbance values observed for each set of three (3) wells correlating with a test compound or control were averaged. The average absorbance value for each test compound was compared to the average absorbance value of the negative control (the positive control was employed to verify proper assay function). In general, biofilm inhibition activity is inversely proportional to absorbance values, whereby, for example, low absorbance values correlate with significant inhibition activity and high absorbance values correlate with small or no inhibition activity. The approximate percent inhibition observed for each compound was calculated by comparing the average absorbance value for each test compound to the average absorbance value for the negative controls. Table 2 summarizes the average percent inhibition observed for the tested compounds listed against biofilms generated by Pseudomonas aeruginosa.

E. coli [2] = experiment: Dose/response biofilm assay against E. coli (crystal violet, 540 nm); assay type: cell-based, Escherichia coli
Procedure: In this example, dose/response characteristics of the biofilm inhibitors were measured using compound 108. The assay employed to measure such dose/response characteristics was adapted from a reported protocol. See Pratt and Kolter, 1998, Molecular Microbiology, 30: 285-293; and Li et al., 2001, J. Bacteriol., 183: 897-908.
The biofilm inhibitory effect of compound 108 was then evaluated at different times and concentrations. In the first assay, compound 108 was added to the test system at the same time as the E. coli inoculum. Specifically, compound 108 was added to the system at final concentrations of 0, 1, 2, 5, and 10 μg/mL along with 50 μL of E. coli inoculum and 150 μL of LB media to measure its ability to inhibit the formation of biofilms. In a second assay, compound 108 was added after a biofilm had formed, i.e., 24 hours after the assay plate was inoculated with E. coli in LB media. In a third assay, compound 108 was tested at 0, 1, 2, 5, 10, and 15 μg/mL against E. coli in LB media with 0.2% glucose (whereby compound 108 was introduced into the system at the time of inoculation).
The suspension culture in each of the assay systems described above was drained from the plate and the residual biofilm, if any, was washed three (3) times with water. A solution containing 0.1% crystal violet was added to each well and maintained thereon for approximately 20 minutes. Following the staining procedure, each well was rinsed three (3) times with water. Each well was then analyzed spectrophotometrically in a microtiter plate reader at 540 nm to quantitate approximate biofilm mass and inhibition of biofilm growth by comparison to a negative control, which included inoculum and growth media alone.

E. coli [3] = experiment: Effect on viability/growth of E. coli (absorbance 620 nm); assay type: cell-based, Escherichia coli; conditions: 1 to 15 μg/mL; LB media; 37° C. for two days; FIG. 1
Procedure: The dose/response behavior of compound 108 was tested against E. coli in LB media with and without 0.2% glucose. First, the effect of compound 108 on the viability of E. coli was measured. Compound 108 was added to a 96-well microtiter plate in triplicate wells to final concentrations of 0, 1, 2, 5, 10, and 15 μg/mL. Compound 108 was added to each well on the plate along with 50 μL of E. coli inoculum and 150 μL of LB and incubated at 37° C. for two days without shaking. After incubation, the plate was analyzed spectrophotometrically at 620 nm to quantitate the approximate levels of E. coli growth. The absorbance values observed for the test wells were averaged and compared to a negative control, i.e., wells containing no biofilm inhibitor.

Pseudomonas aeruginosa [4] = experiment: Minimum inhibitory concentration (NCCLS broth microdilution); assay type: cell-based; conditions: LB media with 0.2% glucose, 35° C. for 20-24 hours
Procedure: The minimum inhibitory concentrations (MICs) for several of the specific biofilm inhibitors described herein were determined against several targets, including P. aeruginosa, E. coli, and Staphylococcus aureus. The MICs of the biofilm inhibitors were measured using the reference broth microdilution method recommended by the National Committee for Clinical Laboratory Standards (NCCLS). […] In each assay, positive and negative controls were employed, wherein the positive control included an antimicrobial agent with a known potency range that was used to ensure proper assay performance. The negative control, generally, included the solvent in which the test compounds were dissolved. In this example, the wells correlating to the negative controls included ethanol (without any biofilm inhibitors). […] Thus, each well contained a final volume of approximately 200 μl (not including the volume of the concentrated inhibitor). […] After bacterial inoculation and loading of test and control samples, the plate was incubated in an ambient air environment at 35° C. for 20-24 hours. The plate was subsequently rinsed, stained, and analyzed in accordance with the procedures described in Example 1. […] The minimum inhibitory concentrations were calculated as the lowest inhibitor concentration at which biofilm inhibition was observed.

[5] = test system: Staphylococcus epidermidis; experiment: Biofilm inhibition assay against Staphylococcus epidermidis; assay type: cell-based; conditions: final concentration of 10 μg/ml, read-out: Inhibition of biofilm formation by S. epidermidis
[6] = test system: Pseudomonas aeruginosa strain PAO 1; experiment: Rotating disk reactor biofilm test in combination with tobramycin; assay type: cell-based; conditions: 48 hours biofilm; compound 110 approximately 100 μg/mL for 24 hours; tobramycin 100 μg/mL for two hours; polystyrene coupons
Procedure: In this example, compound 110 was tested for biofilm inhibition with Pseudomonas aeruginosa in combination with Tobramycin. Specifically, biofilm formation of P. aeruginosa was evaluated using a standardized biofilm method with a rotating disk reactor (RDR), which is also known as “ASTM Standard Method #E-2196-02.” The rotating disk reactor consisted of a one-liter glass beaker fitted with a drain spout. The bottom of the vessel contained a magnetically driven rotor with six 1.27 cm diameter coupons constructed from polystyrene. The rotor consisted of a star-head magnetic stir bar upon which a disk was affixed to hold the coupons. The vessel (with the stir bar) was placed on a stir plate and rotated to provide fluid shear. A nutrient solution (AB Trace Medium with 0.3 mM glucose, see Table 5 below for specific formulation) was added through a stopper in the top of the reactor at a flow rate of 5 mL/min. The reactor volume was approximately 180 mL. At a volume of 180 mL, the residence time of the reactors was 36 minutes. The reactors were operated at room temperature (c.a. 26° C.). In this example, two RDRs were operated in parallel with one receiving compound 110 and the other serving as an untreated control. […] The plates were incubated for 24 hours at 37° C. before colony forming units (CFU) were determined.

[7] = test system: human hepatocellular carcinoma cells (HepG2); experiment: Cytotoxicity, fluorometric detection of mitochondrial activity; assay type: cell-based; conditions: triplicate, approximate, gross cytotoxicity
Excerpt: Met. […] Chlorpromazine (or its equivalent) was used as a positive control.

| Compound | Biofilm Inhibition- Escherichia coli (E. coli JM109) | MIC (μg/mL) - Escherichia coli (Escherichia coli) | MIC (μg/mL) - Staphylococcus aureus (Staphylococcus aureus) | Biofilm Inhibition- Pseudomonas aeruginosa (Pseudomonas aeruginosa [1]) | Prevention of biofilm growth at 15 μg/mL (E. coli [2]; 15 μg/mL, E. coli in LB, added with inoculum, 0 through 50 hours of incubation, FIG. 2) | Concentration as low as which effective at reducing biofilm mass (E. coli [2]; E. coli in LB with 0.2% glucose, added along with the inoculum, FIG. 5) | Concentration as low as which reduces existing biofilm mass (E. coli [2]; E. coli in LB, added 24 hours after inoculation, FIG. 4) | Concentration as low as which effective in preventing biofilm formation (E. coli [2]; E. coli in LB, added along with the inoculum, FIGS. 2 and 3) | Estimated mass of existing biofilm after 24 hours of incubation with compound (E. coli [2]; each of the concentrations tested (1, 2, 5, 10 μg/mL), added 24 hours after inoculation, approximately 50 hours post inoculation, FIG. 4) | Effect on growth of E. coli (E. coli [3]) | MIC (μg/mL) - Pseudomonas aeruginosa (Pseudomonas aeruginosa [4]) | inhibition at 10 µg/mL (E. coli JM109; Escherichia coli, JM 109, 48 h) | MIC (Escherichia coli; Escherichia coli, read-out: MIC (μg/mL) - Escherichia coli) | inhibition at 10 µg/mL [5] | inhibition at 10 µg/mL (Pseudomonas aeruginosa [1]; Pseudomonas aeruginosa) | MIC (Pseudomonas aeruginosa [4]; Pseudomonas aeruginosa, read-out: MIC (μg/mL) - Pseudomonas aeruginosa) | CFU (in log 10) [6] | Inhibition at 30 μM - Hep G2 cells [7] |
| --- | --- | --- | --- | --- | --- | --- | --- | --- | --- | --- | --- | --- | --- | --- | --- | --- | --- | --- |
| C[C@@H]1CC[C@]2(C(=O)O)CCC3(C)C(=CCC4C5(C)C[C@@H](O)[C@H](O)C(C)(C)C5CCC43C)C2[C@H]1C (stereo partly drawn) [Compound 108] | 74% | >15 µg/mL | >32 µg/mL | 52% | almost completely prevent biofilm growth | 1 µg/mL | 1 µg/mL | 1 µg/mL | decreased significantly | did not inhibit the growth; also recorded: does not inhibit the growth | >10 µg/mL |  |  |  |  |  |  |  |
| C[C@H]1[C@H](C)CC[C@]2(C(=O)O)CC[C@]3(C)C(=CC[C@@H]4[C@@]5(C)CC[C@H](O)C(C)(C)[C@@H]5CC[C@]43C)[C@H]12 [Compound 110, ursolic acid] |  |  |  |  |  |  |  |  |  |  |  | 80% | > 10 µg/mL | ~25% | 35% | > 128 µg/mL | 7.1 CFU (in log 10) | 2% |
